Assay results reported in publication PMC3923314 (Biomacromolecules, 2013).

Assays:
[1] = test system: normal rat striatum; test: Convection-enhanced delivery; assay type: in vivo; settings: CED, 20 μl, DOX 0.2 mg/ml, Sprague Dawley rats, a week after infusion
[2] = after injection of free DOX; cited from earlier work

Compound: COc1cccc2c1C(=O)c1c(O)c3c(c(O)c1C2=O)C[C@@](O)(C(=O)CO)C[C@@H]3O[C@H]1C[C@H](N)[C@H](O)[C@H](C)O1 [free DOX, doxorubicin]
- toxicity to brain tissue (H&E staining) [1]: significant tissue damage
- clearance time from blood circulation [2]: tens of minutes
